From US9180163B2, “Parstatin peptides” (priority 2009, dated 2015)

Experiments:
[1] = system: HUVEC cells; assay: Fibrin gel in vitro angiogenesis assay; format: cell-based, human; settings: VEGF/bFGF-induced, 24 h; other peptides 10 μM
Protocol: The ability of endothelial cells to form three-dimensional structures was analyzed using a Fibrin gel in vitro angiogenesis assay kit (Chemicon International Inc. Temecula, Calif.). Fibrin gels were formed in 48-well plates by mixing fibrinogen and thrombin solutions, according to manufacturer instructions. Cells (40,000 cells/well) were then added and cultured in medium containing 2% FBS for 18 h. After the addition of a second layer of fibrin gel, endothelial cells sandwiched within fibrin gels were cultured in serum-free medium containing 0.5% bovine serum albumin (BSA) and the combination of VEGF/bFGF for 24 h. Where indicated, parstatin (1-41) or other indicated peptides were added. Capillary-like network was photographed and measured.

[2] = system: corneas of Sprague-Dawley rats; assay: corneal histopathology after chemical burn (vessels, neutrophils); format: in vivo, rat; settings: 2×50 μg, day 7
Protocol: After the above-described processes were performed, the rats were sacrificed (7 days) and the eyes were excised. All eyes were sectioned (4 μm) and stained with hematoxylin-eosin. Two independent pathologists, in a blinded manner, evaluated the microvessel density and the inflammatory cell infiltration in each slide. Total corneal vascular vessels and neutrophils were counted at 200× in seven representative stained tissue sections for each eye, covering all cornea area and having a similar distance from the central burn.

[3] = system: retinal neovascularization in C57BL/6 mice; format: in vivo; settings: 5 μg intravitreal P12 and P15; P17; vs vehicle (PBS or DMSO)
Text: Parstatin (1-41), hydrophobic parstatin (1-26) fragment and hydrophilic parstatin (24-41) fragment were used in an in vivo mouse model of retinal neovascularization. In particular, oxygen-induced retinopathy was used to generate retinal neovascularization as a preclinical disease model for retinopathy of prematurity and other retinal neovascular diseases such as diabetic retinopathy. In this model, exposing newborn mice to hyperoxia prompts regression or delay of retinal vascular development, followed by abnormal angiogenesis after their return to normal oxygen levels. Mainly, this model mirrors the events that occur during retinopathy of prematurity, when infants are removed from oxygen-rich incubators, a condition involving pathological neovascularization that can affect premature infants and result in permanent visual loss. In recent years, the use of this model has been extended to the general study of ischemic vasculopathies, such us diabetic retinopathy, and related antiangiogenic interventions, and it is now used extensively in both basic and applied research environments.
Pathogen-free C57BL/6 mice were treated in accordance with the Association for Research in Vision and Ophthalmology Statement for the Use of Animals in Ophthalmic and Vision Research and the guidelines of the Animal Care and Use Committee at local University Medical School. Litters of 7-day old (P7) mice were exposed to an atmosphere of 75% oxygen in an airtight incubator for 5 days (P12), after which they were returned to room air for 5 days (P17). For quantification of oxygen-induced retinal neovascularization, mice on P17 were given an intraocular injection of 1 μl of rat anti-mouse platelet endothelial cell adhesion molecule-1 (PECAM-1) antibody (Pharmingen, San Jose, Calif.) under a dissecting microscope with Harvard pump microinjection apparatus. Mice were euthanized 12 hours after injection and eyes were fixed in PBS-buffered formalin for 5 hours. […] Retinal flat mounts were prepared and assessed with fluorescence microscope using imaging software. […]

[4] = system: VEGF-induced retinal leukostasis in C57BL/6J mice; assay: VEGF-induced retinal leukostasis model; format: in vivo, mouse; settings: for reduction of firmly adhering leukocytes vs VEGF-treated controls: 5 μg co-injected with VEGF; for firmly adhering leukocytes: 5 μg co-injected with VEGF (10 μM), 6 h
Protocol: Inflammatory leukocyte accumulation is a common feature of major ocular diseases. […] VEGF, which is a potent chemoattractant for leukocytes, is increased in ischemic retina and is necessary for retinal neovascularization to occur. Parstatin (1-41), hydrophobic parstatin (1-26) fragment and hydrophilic parstatin (24-41) fragment were used in an in vivo mice model of VEGF-induced retinal leukostasis.
C57BL/6J (4-5 week-old) mice were anesthetized with ketamine hydrochloride (100 mg/kg body weight) and xylazine (4 mg/Kg body weight) and the pupils were dilated with 1% tropicamide. Intravitreal injections of 1 μl solutions of 10 μM VEGF, which is the optimal concentration for promoting leukostasis, or parstatin (1-41) or parstatin (24-41) in phosphate buffered saline (PBS) or PBS alone or the combinations were administered. Also, intravitreal injections of 1 μl solutions of parstatin (1-26) in dimethyl sulphoxide (DMSO) or DMSO alone were administered to assess leukostasis. Six hours after intravitreal injections, which was the optimal time determined for VEGF-induced leukostasis, animals were perfused with PBS to remove intravascular content, including nonadherent leukocytes. Perfusion with FITC-conjugated Concanavalin A (40 μg/ml in PBS, Vector Labs, Burlingame, Calif.) was then performed to label adherent leukocytes and vascular endothelial cells, followed by removal of residual unbound lectin with PBS perfusion. Retinal flat mounts were prepared and examined with the Axioskop microscope and images were digitized. The total numbers of leukocytes adhering to the retinal vessels were counted at 200× by the same investigator, with the investigator being masked as to the nature of the specimen.

[5] = system: HUVEC cells; assay: Matrigel capillary tube-like formation; format: cell-based, human; settings: 5% FBS, 18 h; parstatin (1-41) 0.3 to 10 μM, other peptides 10 μM
Protocol: Primary human umbilical vein endothelial cells (HUVEC cells) were obtained from freshly delivered umbilical cords from caesarean births and were grown in M199 medium with 20% fetal bovine serum (FBS) supplemented with endothelial cell growth supplement and heparin. One of the most specific tests for angiogenesis is the measurement of the ability of endothelial cells to form capillary-like structures (i.e., tube formation). Tube formation is a multi-step process involving cell adhesion, migration and differentiation. Tube formation can be enhanced by use of Matrigel or fibrin clots to coat plastic culture dishes and it is an accepted model of angiogenesis.
Matrigel™ (Becton Dickinson Labware, N.J., USA) is a mixture of basement membrane components extracted from the Englebreth-Holm-Swarm tumor. […] Matrigel™ (250 μl) was added to each well of a 24-well plate and allowed to polymerize. A suspension of 40,000 HUVEC cells in M199 medium containing 5% FBS was added into each well coated with Matrigel™.
Cells were treated with increasing concentrations of human parstatin (1-41), scrambled parstatin, or parstatin (24-41) fragment. After 18 hours of incubation, the medium was removed, and the cells were fixed and stained, and tube-like structures were quantitated.

Sequence | capillary-like network (total capillary tube length) in fibrin gels [1] | inhibition of corneal mean number of vascular vessels [2] [%] | inhibition of mean number of infiltrated neutrophils [2] [%] | inhibition of retinal neovascularization [3] [%] | reduction of firmly adhering leukocytes vs VEGF-treated controls [4] [%] | firmly adhering leukocytes [4] [cells/retina] | tube formation on Matrigel [5]
TRARRPESKATNATLDPR (listed as Homo sapiens) [parstatin (24-41), 24-41 (18 amino acids) of human parstatin, hydrophilic fragment] | did not affect | 68 | 75 | 69 | 55 | 81±21 | did not affect
MGPRRLLLVAACFSLCGPLLSARTRA (listed as Homo sapiens) [parstatin (1-26)] |  | 55 | 71 | 65 | 59 | 74±32 | 
